Measurements: patent US20210038607A1, “OXADIAZOLYLTHIOPHENE DERIVATIVES USEFUL AS HISTONE DEACETYLASE INHIBITORS” (Karus Therapeutics Limited, priority 2018, published 2021)

Test system: acetylated α-tubulin in A549 lung adenocarcinoma cells
Assay: Acetylated α-tubulin in-cell western (ICW) assay
Assay type: cell-based
Conditions: Homo sapiens, 16 h exposure, relative to 40 μM scriptaid positive control, read-out: EC50 Ac-α-tubulin, A549 cells
Procedure: Acetylated α-Tubulin and Histone H3 in-Cell Western (ICW) Assays
A549 cells were maintained in DMEM (Life Technologies)+10% FBS+2 mM glutamine & penicillin (10 μg/mL) and streptomycin ([…]. 10,000 A549 cells per well were plated into 96 well tissue culture plates (Corning) and incubated at 37° C. overnight in a humidified atmosphere containing 5% CO2 prior to addition of compounds. Compounds (dissolved in 100% DMSO) were diluted into cell culture media at 2× final assay concentration. 2× compound or DMSO (negative control) were added to cells (final DMSO concentration 0.4%). Untreated control wells received media. For acetylated α-tubulin assays, 40 μM scriptaid was used as a positive control. For acetylated histone H3 assays, 40 μM Trichostatin A (TSA) was used as a positive control. Cells were exposed to compound at 37° C. in a humidified atmosphere containing 5% CO2 for 16 h.
Measurement of the impact of compounds on levels of acetylated α-tubulin and histone H3 was performed using specific antibodies and near-infrared immunofluorescent dyes. Briefly, media was removed from wells of assay plates. Cells were washed once with PBS and fixed in 3.7% formaldehyde PBS solution at room temperature for 20 min. Cells were then permeabilised by washing 5 times in 0.1% triton-X-100 PBS at room temperature with gentle agitation for 5 min per wash. Non-specific antibody staining was blocked by the addition of Odyssey blocking buffer (Li-Cor) for 1.5 h at room temperature with gentle agitation. Cells were then incubated with primary antibody (mouse monoclonal anti-acetylated α-tubulin (clone 6-11B-1), Sigma or rabbit polyclonal anti-acetylated histone H3, Millipore) diluted in Odyssey blocking buffer at 4° C. with gentle shaking overnight (no antibody control and secondary antibody only wells were incubated with Odyssey blocking buffer only). Cells were washed five times with 0.1% tween PBS and labelled with secondary antibody (IR dye 800CW-conjugated goat anti mouse IgG or -goat anti rabbit IgG, Li-Cor) and cell stains Sapphire700 (Li-Cor) and Draq5 (Biostatus) diluted in Odyssey blocking buffer at room temperature in the dark with gentle shaking for 1 h (no antibody control wells were incubated with Odyssey blocking buffer only and secondary antibody only with diluted secondary antibody but no cell stains). Cells were washed with 0.1% Tween PBS five times and scanned using a Li-Cor Odyssey SA plate reader in 700 and 800 nm channels. Acetylated α-tubulin or histone H3 signal was normalised to cell number using the cell stain signal. Percentage increase in acetylated α-tubulin or histone H3 after compound treatment over the mean of DMSO treated controls, relative to scriptaid and TSA positive controls, respectively was calculated. EC50 values were calculated using GraphPad Prism software and nonlinear regression with 0% bottom and 100% top constraints.

Row | SMILES | EC50 [nM]
1 | COC1CN(Cc2ccnc(N(Cc3ccc(-c4noc(C(F)(F)F)n4)s3)c3cnccn3)c2)C1 [Example GH, N-{4-[(3-Methoxyazetidin-1-yl)methyl]pyridin-2-yl}-N-({5-[5-(trifluoromethyl)-1,2,4-oxadiazol-3-yl]thiophen-2-yl}methyl)pyrazin-2-amine] | ≤ 1000
2 | COC1CN(C(=O)c2cnnc(N(Cc3ccc(-c4noc(C(F)(F)F)n4)s3)c3cnccn3)c2)C1 [Example DZ, 5-(3-Methoxyazetidine-1-carbonyl)-N-(pyrazin-2-yl)-N-({5-[5-(trifluoromethyl)-1,2,4-oxadiazol-3-yl]thiophen-2-yl}methyl)pyridazin-3-amine] | ≤ 1000
3 | O=C(c1cnnc(N(Cc2ccc(-c3noc(C(F)(F)F)n3)s2)c2cnccn2)c1)N1C[C@H]2C[C@@H]1CO2 [Example FW, 5-[(1R,4R)-2-Oxa-5-azabicyclo[2.2.1]heptane-5-carbonyl]-N-(pyrazin-2-yl)-N-({5-[5-(trifluoromethyl)-1,2,4-oxadiazol-3-yl]thiophen-2-yl}methyl)pyridazin-3-amine] | ≤ 1000
4 | O=C(c1ccc(N(Cc2ccc(-c3noc(C(F)(F)F)n3)s2)c2cnccn2)nn1)N1C[C@@H]2C[C@H]1CO2 [Example FE, 6-[(1S,4S)-2-Oxa-5-azabicyclo[2.2.1]heptane-5-carbonyl]-N-(pyrazin-2-yl)-N-({5-[5-(trifluoromethyl)-1,2,4-oxadiazol-3-yl]thiophen-2-yl}methyl)pyridazin-3-amine] | 1000 to 10000
5 | O=C(c1cnnc(N(Cc2ccc(-c3noc(C(F)(F)F)n3)s2)c2cnccn2)c1)N1CCS(=O)(=O)CC1 [Example ED, 4-{6-[(Pyrazin-2-yl)({5-[5-(trifluoromethyl)-1,2,4-oxadiazol-3-yl]thiophen-2-yl}methyl)amino]pyridazine-4-carbonyl}-1λ^6-thiomorpholine-1,1-dione] | ≤ 1000
6 | N#Cc1cnnc(N(Cc2ccc(-c3noc(C(F)(F)F)n3)s2)c2cnccn2)c1 [Example EE, 6-[(Pyrazin-2-yl)({5-[5-(trifluoromethyl)-1,2,4-oxadiazol-3-yl]thiophen-2-yl}methyl)amino]pyridazine-4-carbonitrile] | ≤ 1000
7 | CNC(=O)c1cnnc(N(Cc2ccc(-c3noc(C(F)(F)F)n3)s2)c2cnccn2)c1 [Example DY, N-Methyl-6-[(pyrazin-2-yl)({5-[5-(trifluoromethyl)-1,2,4-oxadiazol-3-yl]thiophen-2-yl}methyl)amino]pyridazine-4-carboxamide] | ≤ 1000
8 | CN(C)C1CN(C(=O)c2cnnc(N(Cc3ccc(-c4noc(C(F)(F)F)n4)s3)c3cnccn3)c2)C1 [Example FX, 5-[3-(Dimethylamino)azetidine-1-carbonyl]-N-(pyrazin-2-yl)-N-({5-[5-(trifluoromethyl)-1,2,4-oxadiazol-3-yl]thiophen-2-yl}methyl)pyridazin-3-amine] | ≤ 1000
9 | CN1CCN(C(=O)c2cnnc(N(Cc3ccc(-c4noc(C(F)(F)F)n4)s3)c3cnccn3)c2)CC1 [Example EC, 5-(4-Methylpiperazine-1-carbonyl)-N-(pyrazin-2-yl)-N-({5-[5-(trifluoromethyl)-1,2,4-oxadiazol-3-yl]thiophen-2-yl}methyl)pyridazin-3-amine] | ≤ 1000
10 | FC(F)(F)c1nc(-c2ccc(CN(c3cnccn3)c3cc(CN4CCOCC4)ccn3)s2)no1 [Example GI, N-{4-[(Morpholin-4-yl)methyl]pyridin-2-yl}-N-({5-[5-(trifluoromethyl)-1,2,4-oxadiazol-3-yl]thiophen-2-yl}methyl)pyrazin-2-amine] | ≤ 1000
11 | O=C(c1cnnc(N(Cc2ccc(-c3noc(C(F)(F)F)n3)s2)c2cnccn2)c1)N1C[C@@H]2C[C@H]1CO2 [Example FV, 5-[(1S,4S)-2-Oxa-5-azabicyclo[2.2.1]heptane-5-carbonyl]-N-(pyrazin-2-yl)-N-({5-[5-(trifluoromethyl)-1,2,4-oxadiazol-3-yl]thiophen-2-yl}methyl)pyridazin-3-amine] | ≤ 1000
12 | COc1cncc(N(Cc2ccc(-c3noc(C(F)(F)F)n3)s2)c2cc(C(F)(F)F)cnn2)n1 [Example EN, N-(6-Methoxypyrazin-2-yl)-5-(trifluoromethyl)-N-({5-[5-(trifluoromethyl)-1,2,4-oxadiazol-3-yl]thiophen-2-yl}methyl)pyridazin-3-amine] | ≤ 1000

More lines, now with the values ahead:

Row | EC50 [nM] | SMILES
13 | ≤ 1000 | COC1CN(C(=O)c2ccc(N(Cc3ccc(-c4noc(C(F)(F)F)n4)s3)c3cnccn3)nn2)C1 [Example DR, 6-(3-Methoxyazetidine-1-carbonyl)-N-(pyrazin-2-yl)-N-({5-[5-(trifluoromethyl)-1,2,4-oxadiazol-3-yl]thiophen-2-yl}methyl)pyridazin-3-amine]
14 | ≤ 1000 | O=C(c1ccc(N(Cc2ccc(-c3noc(C(F)(F)F)n3)s2)c2cnccn2)nn1)N1CCC12COC2 [Example FH, 6-{6-Oxa-1-azaspiro[3.3]heptane-1-carbonyl}-N-(pyrazin-2-yl)-N-({5-[5-(trifluoromethyl)-1,2,4-oxadiazol-3-yl]thiophen-2-yl}methyl)pyridazin-3-amine]
15 | ≤ 1000 | CNC(=O)c1ccc(N(Cc2ccc(-c3noc(C(F)(F)F)n3)s2)c2cnccn2)nn1 [Example FC, N-Methyl-6-[(pyrazin-2-yl)({5-[5-(trifluoromethyl)-1,2,4-oxadiazol-3-yl]thiophen-2-yl}methyl)amino]pyridazine-3-carboxamide]
16 | ≤ 1000 | O=C(c1cnnc(N(Cc2ccc(-c3noc(C(F)(F)F)n3)s2)c2cnccn2)c1)N1CCCC1 [Example EA, N-(Pyrazin-2-yl)-5-(pyrrolidine-1-carbonyl)-N-({5-[5-(trifluoromethyl)-1,2,4-oxadiazol-3-yl]thiophen-2-yl}methyl)pyridazin-3-amine]
17 | ≤ 1000 | O=C(c1ccc(N(Cc2ccc(-c3noc(C(F)(F)F)n3)s2)c2cnccn2)nn1)N1CCCCC1 [Example FG, 6-(Piperidine-1-carbonyl)-N-(pyrazin-2-yl)-N-({5-[5-(trifluoromethyl)-1,2,4-oxadiazol-3-yl]thiophen-2-yl}methyl)pyridazin-3-amine]
18 | ≤ 1000 | O=C(c1cnnc(N(Cc2ccc(-c3noc(C(F)(F)F)n3)s2)c2cnccn2)c1)N1CCC1 [Example FS, 5-(Azetidine-1-carbonyl)-N-(pyrazin-2-yl)-N-({5-[5-(trifluoromethyl)-1,2,4-oxadiazol-3-yl]thiophen-2-yl}methyl)pyridazin-3-amine]
